Data from the supplement of paper PMC11208160.

Experiment: recombinant barcode read abundance after kanamycin selection (control-corrected) (log10(CPM+1)); higher = more efficient recombination; sequences stand for … in AGTGCAGAGAAAATCGGCCAGTTTTCTCTGCCTGCAGTCCGCATGCCGT…AGATTTATGCAGCGGACTGCCTTTCTCCCAAAGTGATAAACCGGACAGTATCATGGACCGGTTTTCCCGGTAATCCGTATTTGCAAGGTTGGTTTCACT; site = the 11-nt target
Summary of the method: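 The screen was pooled in E. coli and paired targets with IS621 bridge RNA target-binding loops. Recombination efficiency is taken from barcode counts per million at recombinant junctions, averaged and adjusted against the control. Values, in the form log10(CPM+1), come from duplicate plating on chloramphenicol/ampicillin LB agar or on chloramphenicol/ampicillin/kanamycin with 0.1 mM IPTG.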
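Note: IS621 recombinase and bridge RNA in Escherichia coli cells.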

Row | Sequence | recombinant barcode read abundance (log10)
1 | CGCTGGTCTTGGGTTCTAACCTGTTGCCT (site CGCTAGTCTAG) | 0.309
2 | CGCTGGTCTTGGGTTCTAACCTGTTGCCT (site CGCTCGTCTAG) | 0.145
3 | CGCTGGTCTTGGGTTCTAACCTGTTGCCT (site CGCTGGTCTAG) | 0.0358
4 | CGCTGGTCTTGGGTTCTAACCTGTTGCCT (site CGCTTGTCTAG) | 0.111
5 | CGCTTGTCTTGGGTTCTAACCTGTTGCTT (site CACTTGACTAA) | 0.0517
6 | CGCTTGTCTTGGGTTCTAACCTGTTGCTT (site CGCTTGTCTAA) | 0.0711
7 | CGGAACTCTTGGGTTCTAACCTGTTGCCT (site AGGAACTCTAG) | 0.274
8 | CGGAACTCTTGGGTTCTAACCTGTTGCCT (site CGGAACTCTAG) | 1.85
9 | CGGAATCCTTGGGTTCTAACCTGTTGCCT (site CGGAATCCTAA) | 0.198
10 | CGGAATCCTTGGGTTCTAACCTGTTGCCT (site CGGAATCCTAC) | 0.00785
11 | CGGAATCCTTGGGTTCTAACCTGTTGCCT (site CGGAATCCTAG) | 0.864
12 | CGGAATCCTTGGGTTCTAACCTGTTGCCT (site CGGAATCCTAT) | 0.0895
13 | CGGAATTCTTGGGTTCTAACCTGTTGCCT (site CGGAATTCTAG) | 1.17
14 | CGGAATTCTTGGGTTCTAACCTGTTGCCT (site CGTTATTCTAG) | 0.743
15 | CGGACGGCTTGGGTTCTAACCTGTTGCCT (site CGGACGACTAG) | 0.376
16 | CGGACGGCTTGGGTTCTAACCTGTTGCCT (site CGGACGCCTAG) | 0.285
17 | CGGACGGCTTGGGTTCTAACCTGTTGCCT (site CGGACGGCTAG) | 0.215
18 | CGGACGGCTTGGGTTCTAACCTGTTGCCT (site CGGACGTCTAG) | 0.271
19 | CGGACGTCTTGGGTTCTAACCTGTTGCCT (site CGGACGACTAG) | 0.12
20 | CGGACGTCTTGGGTTCTAACCTGTTGCCT (site CGGACGCCTAG) | 0.0491
21 | CGGACGTCTTGGGTTCTAACCTGTTGCCT (site CGGACGGCTAG) | 0.101
22 | CGGACGTCTTGGGTTCTAACCTGTTGCCT (site CGGACGTCTAG) | 1.45

Row | Sequence | recombinant barcode read abundance (log10)
23 | CGGAGCCCTTGGGTTCTAACCTGTTGCAG (site CGGAGCCCTCT) | 2.06
24 | CGGAGCCCTTGGGTTCTAACCTGTTGCAG (site CTGAGCCCTAT) | 0.143
25 | CGGCACACTTGGGTTCTAACCTGTTGCCT (site CGACACACTAG) | 0.239
26 | CGGCACACTTGGGTTCTAACCTGTTGCCT (site CGCCACACTAG) | 0.0516
27 | CGGCACACTTGGGTTCTAACCTGTTGCCT (site CGGCACACTAG) | 0.761
28 | CGGCACACTTGGGTTCTAACCTGTTGCCT (site CGTCACACTAG) | 0.00935
29 | CGGCACACTTGGGTTCTAACCTGTTGCTT (site CGGCACACTAA) | 0.778
30 | CGGCACACTTGGGTTCTAACCTGTTGCTT (site CGGCTCACTTA) | 0.129
31 | CGGCGTGCTTGGGTTCTAACCTGTTGCCT (site CAGCGTGCTAG) | 0.555
32 | CGGCGTGCTTGGGTTCTAACCTGTTGCCT (site CCGCGTGCTAG) | 0.34
33 | CGGCGTGCTTGGGTTCTAACCTGTTGCCT (site CGGCGTGCTAG) | 1.99
34 | CGGCGTGCTTGGGTTCTAACCTGTTGCCT (site CTGCGTGCTAG) | 0.161
35 | CGGCTACCTTGGGTTCTAACCTGTTGCGG (site CGGCTACCTCC) | 1.29
36 | CGGCTACCTTGGGTTCTAACCTGTTGCGG (site GACGGCACTAG) | 0.0111
37 | CGGCTGCCTTGGGTTCTAACCTGTTGCGG (site CGGCTGCCTCC) | 2.57
38 | CGGCTGCCTTGGGTTCTAACCTGTTGCGG (site GTATCCGCTTG) | 0.446
39 | CGGCTTCCTTGGGTTCTAACCTGTTGCGT (site CAACTTCCTAC) | 0.117
40 | CGGCTTCCTTGGGTTCTAACCTGTTGCGT (site CGGCTTCCTAC) | 1.24
41 | CGGGACACTTGGGTTCTAACCTGTTGCGG (site CGGAACACTCC) | 2.07
42 | CGGGACACTTGGGTTCTAACCTGTTGCGG (site CGGCACACTCC) | 0.143
43 | CGGGACACTTGGGTTCTAACCTGTTGCGG (site CGGGACACTCC) | 2.82
44 | CGGGACACTTGGGTTCTAACCTGTTGCGG (site CGGTACACTCC) | 0.867

Row | Sequence | recombinant barcode read abundance (log10)
45 | CGGGCTACTTGGGTTCTAACCTGTTGCCA (site CGGGCTACTTG) | 0.334
46 | CGGGCTACTTGGGTTCTAACCTGTTGCCA (site TCCTAATCTAA) | 0.00664
47 | CGGGGAGCTTGGGTTCTAACCTGTTGCCG (site CGGGAAGCTAG) | 0.427
48 | CGGGGAGCTTGGGTTCTAACCTGTTGCCG (site CGGGGAGCTCG) | 0.761
49 | CGGGGCACTTGGGTTCTAACCTGTTGCCT (site CGGGGCACTAG) | 0.606
50 | CGGGGCACTTGGGTTCTAACCTGTTGCCT (site CTGGGCACTAG) | 0.18
51 | CGGGGTTCTTGGGTTCTAACCTGTTGCCT (site CAGGGTTCTAG) | 0.321
52 | CGGGGTTCTTGGGTTCTAACCTGTTGCCT (site CCGGGTTCTAG) | 0.167
53 | CGGGGTTCTTGGGTTCTAACCTGTTGCCT (site CGGGGTTCTAG) | 2.43
54 | CGGGGTTCTTGGGTTCTAACCTGTTGCCT (site CTGGGTTCTAG) | 0.0823
55 | CGGGTAACTTGGGTTCTAACCTGTTGCCT (site CGGGTAACTAG) | 0.0693
56 | CGGGTAACTTGGGTTCTAACCTGTTGCCT (site CTGGAAACTAG) | 0.0897
57 | CGGTAATCTTGGGTTCTAACCTGTTGCTT (site ACGTAATCTAA) | 0.0734
58 | CGGTAATCTTGGGTTCTAACCTGTTGCTT (site CGGTAATCTAA) | 0.161
59 | CGGTACACTTGGGTTCTAACCTGTTGCGG (site CGGAACACTCC) | 0.862
60 | CGGTACACTTGGGTTCTAACCTGTTGCGG (site CGGCACACTCC) | 2.48
61 | CGGTACACTTGGGTTCTAACCTGTTGCGG (site CGGGACACTCC) | 0.78
62 | CGGTACACTTGGGTTCTAACCTGTTGCGG (site CGGTACACTCC) | 3.14
63 | CGGTAGTCTTGGGTTCTAACCTGTTGCTG (site CGGTAGTCTAA) | 0.0345
64 | CGGTAGTCTTGGGTTCTAACCTGTTGCTG (site CGGTAGTCTCA) | 1.08
65 | CGGTGAACTTGGGTTCTAACCTGTTGCCT (site CAGTGAACTAG) | 0.109
66 | CGGTGAACTTGGGTTCTAACCTGTTGCCT (site CCGTGAACTAG) | 0.148

Row | Sequence | recombinant barcode read abundance (log10)
67 | CGGTGAACTTGGGTTCTAACCTGTTGCCT (site CGGTGAACTAG) | 1.16
68 | CGGTGAACTTGGGTTCTAACCTGTTGCCT (site CTGTGAACTAG) | 0.146
69 | CGTAAGCCTTGGGTTCTAACCTGTTGCAT (site CGCAAGCCTAT) | 0.265
70 | CGTAAGCCTTGGGTTCTAACCTGTTGCAT (site CGTAAGCCTAT) | 0.57
71 | CGTAGAGCTTGGGTTCTAACCTGTTGCCT (site AGTAGAACTAG) | 0.0247
72 | CGTAGAGCTTGGGTTCTAACCTGTTGCCT (site CGTAGAGCTAG) | 0.349
73 | CGTAGCTCTTGGGTTCTAACCTGTTGCCT (site CGAAGCTCTAG) | 0.133
74 | CGTAGCTCTTGGGTTCTAACCTGTTGCCT (site CGCAGCTCTAG) | 0.128
75 | CGTAGCTCTTGGGTTCTAACCTGTTGCCT (site CGGAGCTCTAG) | 0.134
76 | CGTAGCTCTTGGGTTCTAACCTGTTGCCT (site CGTAGCTCTAG) | 0.516
77 | CGTATCACTTGGGTTCTAACCTGTTGCCT (site CCGATCACTAG) | 0.0447
78 | CGTATCACTTGGGTTCTAACCTGTTGCCT (site CGTATCACTAG) | 0.0527
79 | CGTATGGCTTGGGTTCTAACCTGTTGCCT (site CGTATGGCTAG) | 0.349
80 | CGTATGGCTTGGGTTCTAACCTGTTGCCT (site CGTGGGGCTAG) | 0.279
81 | CGTCACCCTTGGGTTCTAACCTGTTGCCT (site CGTCAACCTAG) | 0.0616
82 | CGTCACCCTTGGGTTCTAACCTGTTGCCT (site CGTCACCCTAG) | 0.173
83 | CGTCACCCTTGGGTTCTAACCTGTTGCCT (site CGTCAGCCTAG) | 0.12
84 | CGTCACCCTTGGGTTCTAACCTGTTGCCT (site CGTCATCCTAG) | 0.126
85 | CGTCAGACTTGGGTTCTAACCTGTTGCCT (site CGTAAGACTAG) | 0
86 | CGTCAGACTTGGGTTCTAACCTGTTGCCT (site CGTCAGACTAG) | 0.109
